How the values were obtained:
Type in all cases: in vivo
rice (Oryza sativa) = experiment: Test B flooded paddy test, visual plant response rating 0-100; conditions: 250 g ai/ha, Flood, applied to paddy water, evaluated after 13 days
Procedure, shortened: (§1)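 Compounds applied to standing paddy water (3 cm above soil, maintained for the test duration) on 2-leaf-stage plants; visual rating vs controls at 13 days, greenhouse.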

[1] = system: barnyardgrass (Echinochloa crusgalli); experiment: as above; conditions: 250 g ai/ha, Flood, applied to paddy water, evaluated after 13 days
Procedure, shortened: as §1

[2] = system: ducksalad (Heteranthera limosa); experiment: as above; conditions: 250 g ai/ha, Flood, applied to paddy water, evaluated after 13 days
Procedure, shortened: as §1

[3] = system: sedge, umbrella (small-flower umbrella sedge, Cyperus difformis); experiment: as above; conditions: 250 g ai/ha, Flood, applied to paddy water, evaluated after 13 days
Procedure, shortened: as §1

[4] = system: ryegrass, Italian (italian ryegrass, Lolium multiflorum); experiment: Test A postemergence application, visual injury rating 0-100
Procedure, shortened: (§2)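 Greenhouse test: loam/sand pots received a surfactant-containing formulation, as a preemergence directed soil spray or a postemergence spray on young plants. Injury was judged visually at day 10 relative to untreated controls.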

kochia (Bassia scoparia) [5] = experiment: as above
Procedure, shortened: as §2

[6] = system: palmer (palmer amaranth, palmer pigweed, Amaranthus palmeri); experiment: as above
Procedure, shortened: as §2

[7] = system: horseweed (Erigeron canadensis); experiment: as above
Procedure, shortened: as §2

corn (Zea mays) [8] = experiment: as above
Procedure, shortened: as §2

[9] = system: blackgrass (Alopecurus myosuroides); experiment: as above
Procedure, shortened: as §2

[10] = system: wheat (Triticum aestivum); experiment: as above
Procedure, shortened: as §2

soybean (Glycine max) [11] = experiment: as above
Procedure, shortened: as §2

[12] = system: ragweed (common ragweed, Ambrosia artemisiifolia); experiment: as above
Procedure, shortened: as §2

[13] = system: galium (catchweed bedstraw, Galium aparine); experiment: as above
Procedure, shortened: as §2

[14] = system: green foxtail (Setaria viridis); experiment: as above
Procedure, shortened: as §2

[15] = system: oat, wild (wild oat, Avena fatua); experiment: as above
Procedure, shortened: as §2

[16] = system: barnyardgrass (Echinochloa crus-galli); experiment: as above
Procedure, shortened: as §2

[17] = system: ryegrass, Italian (italian ryegrass, Lolium multiflorum); experiment: Test A preemergence soil spray, visual injury rating 0-100; conditions: 10 days
Procedure, shortened: as §2

kochia (Bassia scoparia) [18] = experiment: as above; conditions: 10 days
Procedure, shortened: as §2

[19] = system: palmer (palmer amaranth, palmer pigweed, Amaranthus palmeri); experiment: as above; conditions: 10 days
Procedure, shortened: as §2

corn (Zea mays) [20] = experiment: as above; conditions: 10 days
Procedure, shortened: as §2

[21] = system: blackgrass (Alopecurus myosuroides); experiment: as above; conditions: 10 days
Procedure, shortened: as §2

[22] = system: wheat (Triticum aestivum); experiment: as above; conditions: 10 days
Procedure, shortened: as §2

soybean (Glycine max) [23] = experiment: as above; conditions: 10 days
Procedure, shortened: as §2

[24] = system: ragweed (common ragweed, Ambrosia artemisiifolia); experiment: as above; conditions: 10 days
Procedure, shortened: as §2

[25] = system: green foxtail (Setaria viridis); experiment: as above; conditions: 10 days
Procedure, shortened: as §2

[26] = system: oat, wild (wild oat, Avena fatua); experiment: as above; conditions: 10 days
Procedure, shortened: as §2

[27] = system: barnyardgrass (Echinochloa crus-galli); experiment: as above; conditions: 10 days
Procedure, shortened: as §2

[28] = 62 g ai/ha, postemergence, 10 days, 0 = no effect, 100 = complete control
[29] = Postemergence, 16 g ai/ha, greenhouse 10 days, 0 no effect, 100 complete control
[30] = 62 g ai/ha, 0 = no effect, 100 = complete control

C=CC1(C(=O)NC2CC(C(=O)OC)C2)CN(c2cc(F)cc(F)c2)C(=O)O1 (stereo not shown) [Compound 175]
Plant response rating, Rice (0 to 100 scale, 0 is no effect and 100 is complete control) (rice (Oryza sativa)): 0
Plant response rating, Barnyardgrass (0 to 100 scale, 0 is no effect and 100 is complete control) [1]: 0
Plant response rating, Ducksalad (0 to 100 scale, 0 is no effect and 100 is complete control) [2]: 0
Plant response rating, Sedge, Umbrella (0 to 100 scale, 0 is no effect and 100 is complete control) [3]: 0
Ryegrass, Italian plant response rating (0-100) [4, 28]: 100
Ryegrass, Italian plant response rating (0 to 100 scale) [4, 29]: 70
Kochia plant response rating (0-100) (kochia (Bassia scoparia) [5]; [28]): 0
Kochia plant response rating (0 to 100 scale) (kochia (Bassia scoparia) [5]; [29]): 0
Pigweed, Palmer plant response rating (0-100) [6, 28]: 10
Pigweed, Palmer plant response rating (0 to 100 scale) [6, 29]: 0
Horseweed plant response rating (0-100) [7, 28]: 0
Horseweed plant response rating (0 to 100 scale) [7, 29]: 0
Corn plant response rating (0-100) (corn (Zea mays) [8]; [28]): 20
Corn plant response rating (0 to 100 scale) (corn (Zea mays) [8]; [29]): 0
Blackgrass plant response rating (0-100) [9, 28]: 90
Blackgrass plant response rating (0 to 100 scale) [9, 29]: 60
Wheat plant response rating (0-100) [10, 28]: 70
Wheat plant response rating (0 to 100 scale) [10, 29]: 30
Soybean plant response rating (0-100) (soybean (Glycine max) [11]; [28]): 60
Soybean plant response rating (0 to 100 scale) (soybean (Glycine max) [11]; [29]): 0
Ragweed plant response rating (0-100) [12, 28]: 0
Ragweed plant response rating (0 to 100 scale) [12, 29]: 0
Galium plant response rating (0-100) [13, 28]: 90
Galium plant response rating (0 to 100 scale) [13, 29]: 90
Foxtail, Green plant response rating (0-100) [14, 28]: 90
Foxtail, Green plant response rating (0 to 100 scale) [14, 29]: 30
Oat, Wild plant response rating (0-100) [15, 28]: 80
Oat, Wild plant response rating (0 to 100 scale) [15, 29]: 60
Barnyardgrass plant response rating (0-100) [16, 28]: 70
Barnyardgrass plant response rating (0 to 100 scale) [16, 29]: 0
Ryegrass, Italian plant response rating ([17]; 16 g ai/ha, 0 to 100 scale): 10
Ryegrass, Italian plant response rating (0-100) [17, 30]: 90
Kochia plant response rating (kochia (Bassia scoparia) [18]; 16 g ai/ha, 0 to 100 scale): 0
Kochia plant response rating (0-100) (kochia (Bassia scoparia) [18]; [30]): 0
Pigweed, Palmer plant response rating ([19]; 16 g ai/ha, 0 to 100 scale): 0
Pigweed, Palmer plant response rating (0-100) [19, 30]: 0
Corn plant response rating (corn (Zea mays) [20]; 16 g ai/ha, 0 to 100 scale): 0
Corn plant response rating (0-100) (corn (Zea mays) [20]; [30]): 0
Blackgrass plant response rating ([21]; 16 g ai/ha, 0 to 100 scale): 40
Blackgrass plant response rating (0-100) [21, 30]: 60
Wheat plant response rating ([22]; 16 g ai/ha, 0 to 100 scale): 40
Wheat plant response rating (0-100) [22, 30]: 90
Soybean plant response rating (soybean (Glycine max) [23]; 16 g ai/ha, 0 to 100 scale): 0
Soybean plant response rating (0-100) (soybean (Glycine max) [23]; [30]): 0
Ragweed plant response rating ([24]; 16 g ai/ha, 0 to 100 scale): 0
Ragweed plant response rating (0-100) [24, 30]: 0
Foxtail, Green plant response rating ([25]; 16 g ai/ha, 0 to 100 scale): 0
Foxtail, Green plant response rating (0-100) [25, 30]: 90
Oat, Wild plant response rating ([26]; 16 g ai/ha, 0 to 100 scale): 0
Oat, Wild plant response rating (0-100) [26, 30]: 0
Barnyardgrass plant response rating ([27]; 16 g ai/ha, 0 to 100 scale): 0
Barnyardgrass plant response rating (0-100) [27, 30]: 50
